Measured values published in patent publication US20040058957A1, “Benzothiophene derivatives and herbicidal compositions containing the same” (priority 2000, published 2004).

How the values were obtained:
Scirpus juncoides [1] = experiment: Submersion test, treatment 3 days after transplantation: herbicidal effect; type: in vivo; conditions: rated 30 days after application
Experimental: (§1) A mixture consisting of 57 parts by weight of talc and 40 parts by weight of bentonite as carrier and 3 parts by weight of sodium alkylbenzenesulfonate as surfactant was pulverized and mixed uniformly to obtain a carrier for wettable powder. Each herbicidal composition was prepared by uniformly pulverizing and mixing 90 parts by weight of the carrier for wettable powder and 10 parts by weight of the benzothiophene derivative produced in each example.
(§2) Seeds of Scirpus juncoides were sowed onto paddy field soil in a Wagner pot of 1/2000 are. Then, rice seedlings of 2.5 leaf stage were transplanted in the soil. Water was pored into the pot so as to submerge the soil at a depth of 3 cm. The pot was placed in a greenhouse maintained at 20 to 25° C. for vegetation. After 3 days from transplantation of the rice seedlings, a predetermined amount of the herbicidal composition prepared in the step [1] was applied to the pot. After 30 days from the application of the herbicidal composition, the herbicidal effect and injury to the paddy rice were determined.
(§3) The herbicidal effect and the injury to crops in the above tests (1) and (2) were evaluated based on the following ratings.
(§4) The degree of weed control (%) was calculated from the weights of the above-ground parts of fresh weeds in the treated area and the untreated area using the following equation:
(§5) Degree of weed control (%)=[1−(weight of weeds in treated area)/(weight of weeds in untreated area)]×100
(§6) The herbicidal effect was determined according to the following ratings: […]

paddy rice = experiment: Submersion test, treatment 3 days after transplantation: injury to paddy rice; type: in vivo; set-up: key: 0: No injury; 1: Substantially no injury; 2: Slight injury; 3: Some injury; 4: Remarkable injury; 5: Almost all crops dead; conditions: rated 30 days after application
Experimental: A mixture consisting of 57 parts by weight of talc and 40 parts by weight of bentonite as carrier and 3 parts by weight of sodium alkylbenzenesulfonate as surfactant was pulverized and mixed uniformly to obtain a carrier for wettable powder. […] Then, rice seedlings of 2.5 leaf stage were transplanted in the soil. Water was pored into the pot so as to submerge the soil at a depth of 3 cm. The pot was placed in a greenhouse maintained at 20 to 25° C. for vegetation. […] After 30 days from the application of the herbicidal composition, the herbicidal effect and injury to the paddy rice were determined. […] The injury to crops was evaluated according to the following ratings: [table]

Scirpus juncoides [2] = experiment: Submersion test, treatment 10 days after transplantation: herbicidal effect; type: in vivo; conditions: rated 30 days after application
Experimental: as §1
as §2, with “vegetation. After 10 days from” for “vegetation. After 3 days from”
as §3, §4, §5, §6

melting point [°C]	Compound	Herbicidal effect Scirpus juncoides (Scirpus juncoides [1]; application rate 100 g/ha)	Herbicidal effect Scirpus juncoides (Scirpus juncoides [1]; application rate 200 g/ha)	Injury paddy rice (paddy rice; application rate 100 g/ha)	Injury paddy rice (paddy rice; application rate 200 g/ha)	Herbicidal effect Scirpus juncoides (Scirpus juncoides [2]; application rate 100 g/ha)	Herbicidal effect Scirpus juncoides (Scirpus juncoides [2]; application rate 200 g/ha)
195.5 to 197	CSC1Cc2c(Cl)c(C(=O)C3C(=O)CCCC3=O)cc(C)c2S1(=O)=O (stereo not shown) [Compound No. 43, 4-chloro-7-methyl-2-methylthio-5-(1,3-dioxocyclohex-2-yl)carbonyl-2,3-dihydrobenzothiophene 1,1-dioxide]	5 (90% or higher (almost completely dead))	5 (90% or higher (almost completely dead))	0	0	5 (90% or higher (almost completely dead))	5 (90% or higher (almost completely dead))
–	Cc1cc(C(=O)C2C(=O)CCCC2=O)c(Cl)c2c1S(=O)(=O)C(S(C)(=O)=O)C2 (stereo not shown) [Compound No. 46, 4-chloro-7-methyl-2-methanesulfonyl-5-(1,3-dioxocyclohex-2-yl)carbonyl-2,3-dihydrobenzothiophene 1,1-dioxide]	5 (90% or higher (almost completely dead))	5 (90% or higher (almost completely dead))	0	0	4 (70% or higher but less than 90%)	5 (90% or higher (almost completely dead))
–	CS(=O)(=O)C1Cc2c(ccc(C(=O)C3C(=O)CCCC3=O)c2Cl)S1(=O)=O (stereo not shown) [Compound No. 15, 4-chloro-2-methanesulfonyl-5-(1,3-dioxocyclohex-2-yl)carbonyl-2,3-dihydrobenzothiophene 1,1-dioxide]	5 (90% or higher (almost completely dead))	5 (90% or higher (almost completely dead))	0	0	4 (70% or higher but less than 90%)	5 (90% or higher (almost completely dead))
–	CS(=O)(=O)C1Cc2c(ccc(C(=O)C3=C(Cl)CCCC3=O)c2Cl)S1(=O)=O (stereo not shown) [Compound No. 18, 4-chloro-2-methanesulfonyl-5-(3-chloro-1-oxo-2-cyclohexen-2-yl)carbonyl-2,3-dihydrobenzothiophene 1,1-dioxide]	4 (70% or higher but less than 90%)	5 (90% or higher (almost completely dead))	0	0	4 (70% or higher but less than 90%)	5 (90% or higher (almost completely dead))
–	CO/N=C/CSC1Cc2c(ccc(C(=O)C3C(=O)CCCC3=O)c2Cl)S1(=O)=O (single isomer, unassigned) [Compound No. 8, 4-chloro-2-(2-methoxyiminoethyl)thio-5-(1,3-dioxocyclohex-2-yl)carbonyl-2,3-dihydrobenzothiophene 1,1-dioxide]	4 (70% or higher but less than 90%)	5 (90% or higher (almost completely dead))	0	0	5 (90% or higher (almost completely dead))	5 (90% or higher (almost completely dead))
–	CSC1Cc2c(ccc(C(=O)C3=C(SCCO)CCCC3=O)c2Cl)S1(=O)=O (stereo not shown) [Compound No. 31, 4-chloro-2-methylthio-5-[3-(2-hydroxyethyl)thio-1-oxo-2-cyclohexen-2-yl]carbonyl-2,3-dihydrobenzothiophene 1,1-dioxide]	5 (90% or higher (almost completely dead))	5 (90% or higher (almost completely dead))	0	0	5 (90% or higher (almost completely dead))	5 (90% or higher (almost completely dead))
–	CS(=O)(=O)c1ccc(C(=O)C2=C(Sc3ccccc3)C3CCC(C3)C2=O)c(Cl)c1 (stereo not shown) [(B), reference compound]	3 (40% or higher but less than 70%)	4 (70% or higher but less than 90%)	0	0	2 (20% or higher but less than 40%)	3 (40% or higher but less than 70%)
–	CSC1Cc2c(ccc(C(=O)C3=C(n4cccn4)CCCC3=O)c2Cl)S1(=O)=O (stereo not shown) [Compound No. 39, 4-chloro-2-methylthio-5-[3-(pyrazol-1-yl)-1-oxo-2-cyclohexen-2-yl]carbonyl-2,3-dihydrobenzothiophene 1,1-dioxide]	4 (70% or higher but less than 90%)	5 (90% or higher (almost completely dead))	0	0	4 (70% or higher but less than 90%)	5 (90% or higher (almost completely dead))
–	CSC1Cc2c(Cl)c(C(=O)C3=C(SCCOC(=O)CCl)CCCC3=O)cc(C)c2S1(=O)=O (stereo not shown) [Compound No. 51, 4-chloro-7-methyl-2-methylthio-5-[3-(2-chloroacetoxyethyl)thio-1-oxo-2-cyclohexen-2-yl]carbonyl-2,3-dihydrobenzothiophene 1,1-dioxide]	4 (70% or higher but less than 90%)	5 (90% or higher (almost completely dead))	0	0	4 (70% or higher but less than 90%)	5 (90% or higher (almost completely dead))
–	C[S+]([O-])C1Cc2c(ccc(C(=O)C3=C(Cl)CCCC3=O)c2Cl)S1(=O)=O (single isomer, unassigned) [Compound No. 28, 4-chloro-2-methanesulfinyl-5-(3-chloro-1-oxo-2-cyclohexen-2-yl)carbonyl-2,3-dihydrobenzothiophene 1,1-dioxide]	5 (90% or higher (almost completely dead))	5 (90% or higher (almost completely dead))	0	0	5 (90% or higher (almost completely dead))	5 (90% or higher (almost completely dead))
–	COCCSC1Cc2c(ccc(C(=O)C3C(=O)CCCC3=O)c2Cl)S1(=O)=O (stereo not shown) [Compound No. 5, 4-chloro-2-(2-methoxyethyl)thio-5-(1,3-dioxocyclohex-2-yl)carbonyl-2,3-dihydrobenzothiophene 1,1-dioxide]	5 (90% or higher (almost completely dead))	5 (90% or higher (almost completely dead))	0	0	5 (90% or higher (almost completely dead))	5 (90% or higher (almost completely dead))
–	CSC1Cc2c(Cl)c(C(=O)C3=C(SCCO)CCCC3=O)cc(C)c2S1(=O)=O (stereo not shown) [Compound No. 50, 4-chloro-7-methyl-2-methylthio-5-[3-(2-hydroxyethyl)thio-1-oxo-2-cyclohexen-2-yl]carbonyl-2,3-dihydrobenzothiophene 1,1-dioxide]	5 (90% or higher (almost completely dead))	5 (90% or higher (almost completely dead))	0	0	5 (90% or higher (almost completely dead))	5 (90% or higher (almost completely dead))
–	CSC1Cc2c(ccc(C(=O)C3=C(SCC(C)O)CCCC3=O)c2Cl)S1(=O)=O (stereo not shown) [Compound No. 33, 4-chloro-2-methylthio-5-[3-(2-hydroxy-1-propyl)thio-1-oxo-2-cyclohexen-2-yl]carbonyl-2,3-dihydrobenzothiophene 1,1-dioxide]	4 (70% or higher but less than 90%)	5 (90% or higher (almost completely dead))	0	0	4 (70% or higher but less than 90%)	5 (90% or higher (almost completely dead))
